This is an account of results in PMC12434668 (Journal of Medicinal Chemistry, 2025).

Usually GI50 stands for the concentration that inhibits growth by half. As a reminder, the Ki is a dissociation constant, usually derived from enzyme kinetics or from competition with a known ligand. The EC50 is the concentration that produces a half-maximal response. Lower therefore signals a more potent agent.

Series [1] in a line: Mouse pharmacokinetic analyses (i.v. and oral). The format is in vivo. As to conditions: plasma, iv. As to the method:
For PK analysis, mice were administered intravenously or orally with compound formulated in 10% ethanol and 10% Cremophor EL. Compound 13 dosing was also screened with 20% Phosphal IPG, 20% Phosphal MCT, 10% HP-β-CD, and 40% HP-β-CD. Plasma samples were obtained at predefined time points and compound concentrations in plasma were measured by quantitative HPLC–MS/MS using an internal standard. Calibration and quality control samples were prepared using blank plasma from untreated animals. Samples were precipitated with acetonitrile and injected into a HPLC system (Agilent 1200). Separation was performed by gradients of 5 mmol/L ammonium acetate pH 5.0 and acetonitrile with 0.1% formic acid on a Luna C8 reversed-phase column with 2.5 μm particles (Phenomenex). The HPLC was interfaced by ESI operated in positive ionization mode to a triple quadrupole mass spectrometer (6500+ Triple Quad System, SCIEX) operated in multiple reaction monitoring mode. Chromatograms were analyzed with Analyst (SCIEX) and pharmacokinetic parameters were calculated by noncompartmental analysis using proprietary software.

The test system of the next series is K562 cells. In words: In vitro proliferation counterscreen, Mcl-1 insensitive K562. The format is cell-based. Particulars: Homo sapiens; Mcl-1 insensitive K562; top concentration tested 12.5 µM. The protocol: NCI-H929, A427, and K562 cell lines were obtained from ATCC.
(§1) Suspension cells were plated immediately before compound addition. Adherent cell lines were incubated overnight at 37 °C in a tissue culture incubator prior to compound addition. Compounds were added in triplicates using an HP D300e Digital Dispenser (Hewlett-Packard) or manually at the concentrations indicated and total volumes were normalized using DMSO backfill, with final DMSO concentration of 0.5%. Control wells were treated with DMSO only. Following incubation for 72 or 96 h, a Cell Titer-Glo assay was conducted following the manufacturer recommendations (Promega, G9243) and luminescence was measured using a Victor X5 (PerkinElmer) or a Cytation 3 (Biotek) plate reader. % Viability was defined as relative luminescence units (RLU) of each well divided by the RLU of cells on day 0.
(In general: Counterscreens check selectivity or assay interference.)

A further series has as its system A427 cells. In words: In vitro proliferation assay (CellTiter-Glo), A427. The format is cell-based. Particulars: Homo sapiens, A-427. As to the method:
(§2) NCI-H929, A427, and K562 cell lines were obtained from ATCC. NCI-H929 cells were cultured in RPMI1640 (ATCC-formulated, Catalog No. 30-2001) + 10% fetal calf serum (FCS, GIBCO BRL, Cat. No. 26140) + 0.05 mM mercaptoethanol. A-427 cells were cultured in RPMI1640 (ATCC-formulated, Catalog No. 30-2001) + 10% fetal calf serum (FCS, GIBCO BRL, Cat. No. 26140). K562 cell lines were cultured in Iscove’s Modified Dulbecco Medium (Gibco-formulated, purchased from Thermo-Fisher, Cat. No. 12440-053) + 10% fetal bovine serum (FBS, Sigma-Aldrich, F2442). All cell lines were cultured at 37 °C with 5% CO2 in a humidified incubator and have been regularly tested negatively for mycoplasm contamination.
as §1, with “Cells were seeded at 750–1500 cells per well (depending on growth kinetics) in 384-well plates (Corning, Catalog No. 3707) or at 3000 cells per well in 96-well plates in the respective growth medium and allowed to settle overnight. Suspension cells” for “Suspension cells”, “day 0. Four parameter sigmoidal dose–response curves were generated and IC50 values were determined using XLFit (IDBS) software (eq 205) or in-house software. Drug combination experiments were performed in 96-well or 384-well format and drug synergy was determined using the BLISS model (PMID: 26171228).” for “day 0.”

A further series has as its system NCI-H929 cells. Briefly: In vitro proliferation assay (CellTiter-Glo), H929. Type of series: cell-based. Particulars: Homo sapiens. As to the method: as §2
as §1, with “Cells were seeded at 750–1500 cells per well (depending on growth kinetics) in 384-well plates (Corning, Catalog No. 3707) or at 3000 cells per well in 96-well plates in the respective growth medium and allowed to settle overnight. Suspension cells” for “Suspension cells”, “day 0. Four parameter sigmoidal dose–response curves were generated and IC50 values were determined using XLFit (IDBS) software (eq 205) or in-house software. Drug combination experiments were performed in 96-well or 384-well format and drug synergy was determined using the BLISS model (PMID: 26171228).” for “day 0.”

The target of a further series is T1, Mcl-1 (Homo sapiens, UniProt Q07820).
T1 construct: Briefly, a previously reported construct was subcloned into an expression vector (pDEST-HisMBP); MBP (from vector pDEST-HisMBP); made in house; host or cells: Escherichia coli BL21 CodonPlus (DE3) RIL
T1 sequence (Q07820 whole entry): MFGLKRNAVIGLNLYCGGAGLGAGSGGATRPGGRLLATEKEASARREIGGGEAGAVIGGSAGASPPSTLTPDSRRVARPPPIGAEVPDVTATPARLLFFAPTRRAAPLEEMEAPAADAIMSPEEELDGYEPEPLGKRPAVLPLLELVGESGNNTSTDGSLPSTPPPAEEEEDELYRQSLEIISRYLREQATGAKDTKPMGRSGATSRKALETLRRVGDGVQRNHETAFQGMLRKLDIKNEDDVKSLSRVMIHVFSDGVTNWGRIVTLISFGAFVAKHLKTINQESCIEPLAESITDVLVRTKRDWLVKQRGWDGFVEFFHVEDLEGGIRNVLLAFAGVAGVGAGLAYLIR
In words: TR-FRET binding assay (FITC-Bak peptide competition). An excerpt: Protein preparation was described previously. Briefly, a previously reported construct was subcloned into an expression vector (pDEST-HisMBP) expressed in Escherichia coli BL21 CodonPlus (DE3) RIL (Stratagene) and purified through nickel-column and size-exclusion chromatography sequentially.
Mixtures containing vehicle without compound served as a negative control, while mixtures containing no protein served as a positive control. […] Two or more repeats were obtained and average K i values are reported.
(In general: TR-FRET usually uses a lanthanide donor and a delayed reading to cut background.)

The test system of series [2] is caspase 3/7 in K562 cells. In words: Caspase 3/7 induction assay (Caspase-Glo), K562. The format is cell-based. As to conditions: compound treatment for 3 h; for EC50: Homo sapiens, K562. As to the method: (§3) Cells were treated with a 10-point compound titration and incubated at 37 °C for 3 h.
The test system of series [3] is caspase 3/7 in H929 cells. Briefly: Caspase 3/7 induction assay (Caspase-Glo), H929. Type of series: cell-based. As to conditions: compound treatment for 3 h; for EC50: Homo sapiens, NCI-H929. As to the method: as §3
Series [4] concerns caspase 3/7 in A427 cells. In words: Caspase 3/7 induction assay (Caspase-Glo), A427. The format is cell-based. As to conditions: compound treatment for 3 h; for EC50: Homo sapiens, A-427. As to the method:
as §3

The mark [5] stands for this setting: dosed at 20 mg/kg, read-out: i.v. mouse CL.
Setting [6] is: supplementary CSV, unit not given (Table 1: 20 mg/kg, 14 and 16 at 10 mg/kg), read-out: CL.
[7] abbreviates: supplementary CSV, unit inferred.
[8] abbreviates: in the presence of 1% fetal bovine serum, average of at least n = 2, read-out: TRFRET, Mcl-1 Ki.
Where [9] appears, read: supplementary CSV, unit inferred, read-out: Ki TRFRET.
Setting [10] is: A427 cell line, average of at least n = 2, triplicate.
The mark [11] stands for this setting: H929 cell line, average of at least n = 2, triplicate.

Molecules are shown by their SMILES. Where two headings read alike, the source gives them in different places.

For `COc1cc(N2C[C@@H](C)n3c(c(CCCOc4cc(C)c(Cl)c(C)c4)c4ccc(Cl)c(-c5c(C)nn(C)c5C)c43)C2=O)c2c(cc(C(=O)O)n2C)c1OC` [Compound 9], the clearance in series [1] (setting [5]) and in series [1] (setting [6]) was 70 mL/min/kg throughout.
As to `COc1cc2c3c(cc(C(=O)O)n3CCCOCc3c(c(C)nn3C)-c3c(Cl)ccc4c(CCCOc5cc(C)c(Cl)c(C)c5)c5n(c34)[C@H](C)CN2C5=O)c1OC` [Compound 11, (2^63^4 S a ,1^72^2 R a ,2^4 R)-2^7-Chloro-2^10-(3-(4-chloro-3,5-dimethylphenoxy)propyl)-1^4,1^5-dimethoxy-2^4,3^1,3^3-trimethyl-2^1-oxo-2^1,2^2,2^3,2^4-tetrahydro-1^1 H,3^1 H-5-oxa-2(2,6)-pyrazino[1,2-a]indola-1(7,1)-indola-3(4,5)-pyrazolacyclooctaphane-1^2-carboxylic Acid], the 50% growth inhibitory concentration (GI50) was more than 12500 nM with K562 cells, 64 nM with A427 cells (setting [7]) and 24 nM in the series with NCI-H929 cells (setting [7]). In addition, the figures for the Ki at Mcl-1 (setting [8]) and at Mcl-1 (setting [9]) were 0.08 ± 0.01 nM and 0.04 nM, respectively.
`COc1cc2c3c(cc(C(=O)O)n3CCCCOCc3nn(C)c(C)c3-c3c(Cl)ccc4c(CCCOc5cc(C)c(Cl)c(C)c5)c5n(c34)[C@H](C)CN2C5=O)c1OC` [Compound 12, (2^63^4 S a ,1^72^2 R a ,24R)-2^7-Chloro-2^10-(3-(4-chloro-3,5-dimethylphenoxy)propyl)-1^4,1^5-dimethoxy-2^4,3^1,3^5-trimethyl-2^1-oxo-2^1,2^2,2^3,2^4-tetrahydro-1^1 H,3^1 H-5-oxa-2(2,6)-pyrazino[1,2-a]indola-1(7,1)-indola-3(4,3)-pyrazolacyclononaphane-1^2-carboxylic Acid]: the figures for the GI50 in the series on K562 cells, in the series on A427 cells (setting [7]) and in the series with NCI-H929 cells (setting [7]) were more than 7800 nM, 87 nM and 39 nM, respectively. Further, the Ki at Mcl-1 (setting [9]) amounted to 0.12 nM.
`Cc1cc2c3c(c1)cc(C(=O)O)n3CCCOCc1nn(C)cc1-c1c(Cl)ccc3c(CCCOc4cc(C)c(Cl)c(C)c4)c4n(c13)[C@H](C)CN2C4=O` [Compound 14, (2^63^4 S a ,1^72^2 R a ,2^4 R)-2^7-Chloro-2^10-(3-(4-chloro-3,5-dimethylphenoxy)propyl)-1^5,2^4,3^1-trimethyl-2^1-oxo-2^1,2^2,2^3,2^4-tetrahydro-1^1 H,3^1 H-5-oxa-2(2,6)-pyrazino[1,2-a]indola-1(7,1)-indola-3(4,3)-pyrazolacyclooctaphane-1^2-carboxylic Acid]: the clearance in series [1] (dosed at 10 mg/kg, read-out: i.v. mouse CL) was found to be 8.4 mL/min/kg; in series [1] (setting [6]), 8.4 mL/min/kg. In addition, the EC50 in series [2] was more than 3120 nM; in series [3] it was 45 nM; in series [4], 35 nM. In addition, the “K562 Caspase 3/7 fold over vehicle (FoV)” value in series [2] came out at 1.3 fold. Moreover, the GI50 in the series with K562 cells is more than 10200 nM; in the series with A427 cells (setting [10]), 195 ± 14 nM; with NCI-H929 cells (setting [11]), 64 ± 17 nM. Moreover, the “H929 Caspase 3/7 maximum activity, fold over vehicle (FoV)” value in series [3] was found to be 17 fold. For the same molecule, the “A427 Caspase 3/7 fold over vehicle (FoV)” value in series [4] worked out at 16 fold. Besides, the inhibition constant Ki is less than 0.08 nM on Mcl-1 (setting [8]) and 0.03 nM on Mcl-1 (setting [9]).
`COc1cc2c3c(c1)cc(C(=O)O)n3CCCOCc1nn(C)cc1-c1c(Cl)ccc3c(CCCOc4cc(C)c(Cl)c(C)c4)c4n(c13)[C@H](C)CN2C4=O` [Compound 15, (2^63^4 S a ,1^72^2 R a ,2^4 R)-2^7-Chloro-2^10-(3-(4-chloro-3,5-dimethylphenoxy)propyl)-1^5-methoxy-2^4,3^1-dimethyl-2^1-oxo-2^1,2^2,2^3,2^4-tetrahydro-1^1 H,3^1 H-5-oxa-2(2,6)-pyrazino[1,2-a]indola-1(7,1)-indola-3(4,3)-pyrazolacyclooctaphane-1^2-carboxylic Acid]: the values for the EC50 in series [2], in series [3] and in series [4] were more than 3120 nM, 43 nM and 34 nM, respectively. In addition, in series [2], the “K562 Caspase 3/7 fold over vehicle (FoV)” value is given as 1.3 fold. The GI50 with K562 cells is more than 12500 nM; with A427 cells (setting [10]), 60 ± 24 nM; in the series with NCI-H929 cells (setting [11]), 38 ± 11 nM. Further, the “H929 Caspase 3/7 maximum activity, fold over vehicle (FoV)” value in series [3] is listed as 17 fold. The “A427 Caspase 3/7 fold over vehicle (FoV)” value in series [4] is 15 fold. The inhibition constant Ki on Mcl-1 (setting [8]) was less than 0.08 nM; on Mcl-1 (setting [9]) it was 0.04 nM.
With `COc1cc2c3c(cc(C(=O)O)n3CCCOCc3nn(C)cc3-c3cccc4c(CCCOc5cc(C)c(Cl)c(C)c5)c5n(c34)[C@H](C)CN2C5=O)c1OC` [Compound 23, (2^63^4 R a ,1^72^2 R a ,2^4 R)-2^10-(3-(4-Chloro-3,5-dimethylphenoxy)propyl)-1^4,1^5-dimethoxy-2^4,3^1-dimethyl-2^1-oxo-2^1,2^2,2^3,2^4-tetrahydro-1^1 H,3^1 H-5-oxa-2(2,6)-pyrazino[1,2-a]indola-1(7,1)-indola-3(4,3)-pyrazolacyclooctaphane-1^2-carboxylic Acid], the concentration for 50% growth inhibition (GI50) is more than 12500 nM in the series on K562 cells, 32 ± 4 nM in the series with A427 cells (setting [10]) and 15 ± 4 nM in the series with NCI-H929 cells (setting [11]). The Ki on Mcl-1 (setting [8]) is less than 0.08 nM; on Mcl-1 (setting [9]), less than 0.02 nM.
As for `COc1c(OCC2CCOCC2)cc(N2C[C@@H](C)n3c(c(CCCOc4cc(C)c(Cl)c(C)c4)c4ccc(Cl)c(-c5c(C)nc(C)nc5C)c43)C2=O)c2c1cc(C(=O)N(C)C)n2C` [Compound 24, (R)-7-(7-chloro-10-(3-(4-chloro-3,5-dimethylphenoxy)propyl)-4-methyl-1-oxo-6-(2,4,6-trimethylpyrimidin-5-yl)-3,4-dihydropyrazino[1,2-a]indol-2(1H)-yl)-4-methoxy-N,N,1-trimethyl-5-((tetrahydro-2H-pyran-4-yl)methoxy)-1H-indole-2-carboxamide], the clearance in series [1] (setting [5]) and in series [1] (setting [6]) was 2 mL/min/kg in each case. The results for the concentration for 50% growth inhibition (GI50) in the series on K562 cells, in the series on A427 cells (setting [10]) and in the series with NCI-H929 cells (setting [11]) were more than 12500 nM, 3600 ± 140 nM and 1100 ± 380 nM, respectively. The Ki at Mcl-1 (setting [8]) turned out to be 105 ± 8 nM.
